Measurements as given in patent US4101536A, “Muramyldipeptide derivatives and process for the preparation thereof” (Daiichi Seiyaku Co., Ltd., priority 1976, dated 1978).
Several values for one entry are separate records, joined by “and”; a condition that tells them apart may be missing. Equal values may be shown once.

Tests used:
[1] = test system: Hartley guinea pigs; assay: Adjuvant activity on the induction of delayed-type hypersensitivity to ABA-Tyr (skin test); assay type: in vivo, guinea pig; settings: with 50 μg ABA-Tyr in Freund's incomplete adjuvant, four footpads, skin test two weeks later, mm ± SE
Protocol: Adjuvant activity of the object compound on the induction of delayed-type hypersensitivity to ABA-Tyr.
Hartley guinea pigs were immunized into four footpads with 50 μg of N-acetyl-L-tyrosine-3-azobenzene-4'-arsonic acid (ABA-Tyr) in Freund's incomplete adjuvant with a test material dissolved or suspended in phosphate buffered saline. Control groups were immunized with ABA-Tyr alone in Freund's incomplete adjuvant.
Two weeks later, skin test with 100 μg of ABA-bacterial α-amylose (ABA-BαA) dissolved in saline was made and skin reaction was measured 24 hours after intradermal injection of test antigen.

[2] = test system: mastocytoma P815-X2 cells; assay: Adjuvant activity on the induction of cell-mediated cytotoxic cells in the spleen of allogenic mice (Brunner's method); assay type: in vivo, C57BL/6J mice; settings: phosphate buffered saline suspension, eleven days after
Protocol: Adjuvant activity on the induction of cell-mediated cytotoxic cells in the spleen of allogenic mice (C57BL/6J).
Three or four mice of C57BL/6J in each group were immunized intraperitoneally with a mixture of mastocytoma P815-X2 cells (1 × 10^4) and a test material dissolved or suspended in phosphate buffered saline. Control group was immunized with mastocytoma P815-X2 cells alone.
Eleven days after, cell-mediated cytotoxicity was determined by Brunner's method (Immunology 18, 501-515 1970).

[3] = test system: MH134 hepatoma; assay: Antitumor activity on the suppression of MH-134 hepatoma; assay type: in vivo, C3H/He mice; settings: intradermal, A = mice with tumor growth completely suppressed, B = tested mice
Protocol: Antitumor activity on the suppression of MH-134 hepatoma in C3H/He mice
The antitumor activity of the compounds of this invention was examined by using MH134 hepatoma in syngeneic C3H/He mice. A mixture of tumor cells of MH134 (1 × 10^5) and materials (100 or 20 μg) dissolved or suspended in phosphate buffered saline and transplanted intradermally into C3H/He mice and the tumor growth was measured in inoculated sites.

[4] = test system: mastocytoma P815-X2 cells; settings: immunization with allogeneic antigen, mastocytoma P815-X2 cell in vivo; prior-art statement; cited from earlier work
[5] = test system: MH134 hepatoma; settings: MH134 hepatoma in C3H/He; prior-art statement; cited from earlier work
[6] = test system: melanoma B16; settings: melanoma B16 in C57BL/6J; prior-art statement; cited from earlier work
[7] = test system: ovalmin protein antigen; settings: increased serum antibody levels and induction of delayed-type hypersensitivity; prior-art statement; cited from earlier work
[8] = dose 10 μg/mice i.p. with P815-X2 cells (1 × 10^4)
[9] = dose 100 μg/mice i.p. with P815-X2 cells (1 × 10^4)
[10] = dose 20 μg mixed with MH134 cells (1 × 10^5)
[11] = dose 100 μg mixed with MH134 cells (1 × 10^5)

Row | Compound | Skin reaction with 100μg of ABA-BαA at 24 hrs. ([1]; dose 30 μg) | Skin reaction with 100μg of ABA-BαA at 24 hrs. ([1]; dose 300 μg) | Specific Target Cell Lysis [2, 8] | Specific Target Cell Lysis [2, 9] | Antitumor Activity A/B Tumor Growth [3, 10] | Skin reaction with 100μg of ABA-BαA at 24 hrs. ([1]; dose 50 μg) | Skin reaction with 100μg of ABA-BαA at 24 hrs. ([1]; dose 500 μg) | Antitumor Activity A/B Tumor Growth [3, 11] | Skin reaction with 100μg of ABA-BαA at 24 hrs. ([1]; dose 40 μg) | Skin reaction with 100μg of ABA-BαA at 24 hrs. ([1]; dose 400 μg) | Skin reaction with 100μg of ABA-BαA at 24 hrs. ([1]; dose 100 μg) | adjuvant activity in the generation of cell-mediated cytotoxic effector cells on the spleen [4] | antitumor activity on syngeneic mouse tumor system [5] | antitumor activity on syngeneic mouse tumor system [6] | immunoadjuvant activity [7]
1 | 6-O-corynomycoloyl-N-acetylmuramyl-L-alanyl-D-isoglutamine [Coryno-L-Ala-D-isoGln] | 21.2 ± 1.9 mm | 22.0 ± 0.6 mm | 16.1 ± 5.0% | 28.8 ± 14.4% | 6/10 |  |  |  |  |  |  |  |  |  | 
2 | 6-O-mycomycoloyl-N-acetylmuramyl-L-alanyl-D-isoglutamine [Myco-L-Ala-D-isoGln] |  |  | 3.9% | 69.7% |  | 22.8 ± 0.6 mm and 12.8 ± 1.6 mm | 20.9 ± 0.8 mm and 17.1 ± 0.5 mm | 10/10 |  |  |  |  |  |  | 
3 | 6-O-mycomycoloyl-N-acetylmuramyl-L-ser-D-isoglutamine [Myco-L-Ser-D-isoGln] |  |  | 21.8 ± 15.2% | 30.4 ± 14.0% |  | 18.0 ± 0.6 mm | 15.0 ± 0.5 mm | 10/10 |  |  |  |  |  |  | 
4 | 6-O-mycomycoloyl-N-acetylmuramyl-glycyl-D-isoglutamine [Myco-Gly-D-isoGln] |  |  | 39.3 ± 3.2% | 77.0 ± 4.0% |  | 2.7 ± 0.7 mm | 15.3 ± 0.6 mm | 7/10 |  |  |  |  |  |  | 
5 | 6-O-nocardomycoloyl-N-acetylmuramyl-L-alanyl-D-isoglutamine [Nocardo-L-Ala-D-isoGln] |  |  | 21.0 ± 7.6% | 76.9 ± 3.2% | 5/10 |  |  |  | 24.5 ± 0.7 mm | 23.0 ± 1.5 mm |  |  |  |  | 
6 | CCCCCCCCCCCCCCCCCC(=O)OCC1OC(O)C(NC(C)=O)C(OC(C)C(=O)NC(C)C(=O)NC(CCC(=O)O)C(N)=O)C1O (stereo not drawn) [Stearoyl-muramyldipeptide, 6-O-stearoyl-muramyldipeptide, reference compound] |  |  |  | 4.2% | 0/10 |  |  | 0/10 |  |  | 17.2 ± 1.2 mm | no adjuvant activity | no antitumor activity | no antitumor activity | immunological properties almost similar to those of muramyldipeptide
